Results as given in ChEMBL document CHEMBL3046080, “Synthesis of imidazole-derived steroidal hybrids as potent aromatase inhibitors” (Med Chem Res, 2013).

What was measured:
Aromatase = target: T1, Aromatase (Homo sapiens, UniProt P11511); design: species or system Placenta, Microsome
T1 sequence (P11511 whole entry): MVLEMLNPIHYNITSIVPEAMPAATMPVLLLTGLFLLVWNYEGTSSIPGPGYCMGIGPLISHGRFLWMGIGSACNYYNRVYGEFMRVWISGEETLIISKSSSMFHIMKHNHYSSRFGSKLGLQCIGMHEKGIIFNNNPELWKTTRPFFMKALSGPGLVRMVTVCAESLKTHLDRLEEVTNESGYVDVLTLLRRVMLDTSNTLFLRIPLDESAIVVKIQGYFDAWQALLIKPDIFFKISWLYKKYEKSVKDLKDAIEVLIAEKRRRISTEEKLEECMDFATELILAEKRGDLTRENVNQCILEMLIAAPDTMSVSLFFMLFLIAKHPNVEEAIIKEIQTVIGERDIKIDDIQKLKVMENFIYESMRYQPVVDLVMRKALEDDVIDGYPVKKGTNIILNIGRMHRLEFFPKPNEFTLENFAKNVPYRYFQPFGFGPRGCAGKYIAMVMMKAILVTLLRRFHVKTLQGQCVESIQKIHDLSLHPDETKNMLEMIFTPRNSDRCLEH
Description: Inhibition of aromatase in Homo sapiens (human) placental microsome assessed as tritiated H2O release from [1-beta-3H] androstenedione substrate preincubated with substrate for 5 min prior to enzyme addition measured after 20 min by beta-scintillation counting analysis

aromatase (CYP19) [1] = target: T2, aromatase (CYP19) (Homo sapiens, UniProt P11511); experiment: Inhibition of aromatase in Homo sapiens (human) placental microsome assessed as tritiated H2O release from [1-beta-3H] androstenedione substrate at 5 uM preincubated with substrate for 5 min prior to enzyme addition measured after 20 min by beta-scintillation counting analysis; design: species or system Placenta; settings: placental microsomes, probe [1-beta-3H] androstenedione
T2 sequence (P11511 whole entry): T1 sequence (P11511 whole entry)

aromatase (CYP19) [2] = target: T2, aromatase (CYP19); experiment: Inhibition of aromatase in Homo sapiens (human) placental microsome assessed as tritiated H2O release from [1-beta-3H] androstenedione substrate at 36 uM preincubated with substrate for 5 min prior to enzyme addition measured after 20 min by beta-scintillation counting analysis; design: species or system Placenta; settings: placental microsomes, probe [1-beta-3H] androstenedione

Compound `C[C@]12CCC(=O)C=C1CC[C@@H]1[C@@H]2CC[C@]2(C)C(=O)/C(=C/c3ccc(OCCCn4ccnc4)cc3)C[C@@H]12` has an IC50 (Aromatase) of 11.9 µM.
Work on `C[C@]12CC[C@H](O)CC1=CC[C@@H]1[C@@H]2CC[C@]2(C)C(=O)/C(=C/c3ccc(OCCCn4ccnc4)cc3)C[C@@H]12` yielded an inhibition at 20 min, 5 µM (aromatase (CYP19) [1]) of 4.1%.
`C[C@]12CC[C@H](O)CC1=CC[C@@H]1[C@@H]2CC[C@]2(C)C(=O)/C(=C/c3ccc(OCCCCl)cc3)C[C@@H]12` showed an inhibition at 20 min, 5 µM (aromatase (CYP19) [1]) of 0.2%.
`CC(=O)O[C@H]1CC[C@@]2(C)C(=CC[C@@H]3[C@@H]2CC[C@]2(C)C(=O)/C(=C/c4cccc(OCCCn5ccnc5)c4)C[C@@H]32)C1` gave an inhibition at 20 min, 36 µM (aromatase (CYP19) [2]) of 38%.
For `CC(=O)O[C@H]1CC[C@@]2(C)C(=CC[C@H]3[C@@H]4C/C(=C\c5cccc(OCCCn6ccnc6)c5)[C@H](OC(C)=O)[C@@]4(C)CC[C@@H]32)C1`, the inhibition at 20 min, 36 µM (aromatase (CYP19) [2]) was 34%.
Work on `C[C@]12CC[C@H]3[C@@H](CC=C4C[C@@H](O)CC[C@@]43C)[C@@H]1C/C(=C\c1cccc(OCCCn3ccnc3)c1)[C@@H]2O` yielded an IC50 (Aromatase) of 9.1 µM.
Compound `C[C@]12CC[C@H](O)CC1=CC[C@@H]1[C@@H]2CC[C@]2(C)C(=O)/C(=C/c3cccc(OCCCn4ccnc4)c3)C[C@@H]12` has an inhibition at 20 min, 36 µM (aromatase (CYP19) [2]) of 34%.
